Results from US20110263608A1, “16-KETO ASPERGILLIMIDES AND HARMFUL ORGANISM CONTROL AGENT COMPRISING THE SAME AS ACTIVE INGREDIENT” (Meiji Seika Pharma Co., Ltd., priority 2008, published 2011).
Read-outs that look alike come from different tables or passages of the source.

Assays:
Assay type in all cases: in vivo
[1] = system: Haemaphysalis longicornis; test: Tickcidal effect against Haemaphysalis longicornis (dry film in glass vial); conditions: 24 h, read-out: Death rate after one day
Protocol: Acetone solution (30 μl) of 200 ppm of compounds 1 to 9 and 20 ppm of compounds A and B was placed in 4 mL-volume glass vials. The vials were placed on a shaker, and a dry film of the compound was formed on the inner wall of the vials. The vials were dried for 24 hr or longer. Larva ticks of Haemaphysalis longicornis (10 heads) were released in the vials, and the vials were lidded.
(§1) Death rate (%)={number of dead larvae/(number of survived larvae+number of dead larvae)}×100

Aphis gossypii = test: Insecticidal effect against Aphis gossypii (cucumber leaf disk); conditions: foliar, 72 h, read-out: insecticidal activity (death rate)
Protocol: A leaf disk having a diameter of 2.0 cm was cut out from a cucumber in pot culture, and test solutions adjusted to a 200 ppm concentration (50% aqueous acetone solution; 0.05% Tween 20 added) were applied to the leaf disk. The leaf disk was then air dried, and first instar larvae were released and were then allowed to stand in a humidistat chamber (light period 16 hr—dark period 8 hr) (25° C.). […] The test was duplicated.
as §1

[2] = system: Frankliniella occidentalis; test: Insecticidal effect against Frankliniella occidentalis (kidney bean leaf disk); conditions: 100 ppm, first instar larvae, six days after release
Protocol: A leaf disk having a diameter of 2.8 cm was cut out from kidney bean in pot culture, and a test solutions adjusted to a 100 ppm concentration (50% aqueous acetone solution; 0.05% Tween 20 added) were applied to the leaf disk. The leaf disk was then air dried, and first instar larvae were released and were then allowed to stand in a humidistat chamber (light period 16 hr—dark period 8 hr) (25° C.). […] The test was duplicated. Death rate (%)={number of dead larvae/(number of survived larvae+number of dead larvae)}×100

Laodelphax striatellus = test: Insecticidal effect against Laodelphax striatellus (root absorption, wheat seedlings); conditions: 72 h, read-out: insecticidal activity (death rate)
Protocol: A test solution (200 μl) adjusted to a 100 ppm concentration (10% aqueous acetone solution) was applied to the root of wheat seedlings in water culture. After the absorption of the test solution from the root for 3 days, 10 second instar larvae of Laodelphax striatellus were released, and the wheat seedlings were then allowed to stand in a humidistat chamber (light period 16 hr—dark period 8 hr) (25° C.). […] The test was duplicated.
as §1

Ctenocephalides felis = test: Fleacidal effect against Ctenocephalides felis (treated filter paper); conditions: 6.3 ppm acetone solution (200 μL) on filter paper, adults
Protocol: Acetone solution (200 μL) of 6.3 ppm of compound A was dropped on a filter paper having a diameter of 4.0 cm, and the filter paper was air-dried at room temperature to evaporate acetone. The chemical compound-treated filter paper was tightly fitted into a lid (diameter: 3.7 cm) for a 200-mL vial. About 25 adults of Ctenocephalides felis one to 3 days after adult eclosion were released in the 200 mL-volume vial, and the vial was then sealed by the vial lid with the chemical compound-treated filter paper fitted thereinto. The vial was inverted so that Ctenocephalides felis came into contact with the filter paper and, in this state, was left to stand. […] The test was triplicated.
as §1

[3] = Single oral administration acute toxicity against rat; conditions: female, Jcl: Wistar, in vivo, 2000 mg/kg, single oral administration
Protocol: (§2) Compound A was suspended at a concentration of 100 mg/mL using 0.5% methylcellulose. The test solution was forcibly orally administered to rats (Jcl: Wistar, female, 8 week olds) with a tube and a disposable syringe. The dose was 2000 mg/kg. […]

[4] = system: rats (Jcl: Wistar, female); test: as above; conditions: single oral dose 2000 mg/kg, 15 days
Protocol: as §2

[5] = system: Haemaphysalis longicornis; test: Tickcidal effect against Haemaphysalis longicornis on body surface of mouse; conditions: larvae
Excerpt: Skin hair on the back of mice (ICR, male, 5 week olds) was clipped in a diameter of about 2 cm, and a 15-mL polystyrene conical tube cut to have a height of about 1.5 cm was bonded to the body surface of the mice with an instant adhesive.
as §1

[6] = 200 ppm acetone solution (30 μl), dry film, larva ticks, 25 C
[7] = 200 ppm, first instar larvae, three days after release
[8] = 100 ppm (200 μl) to root, second instar larvae, three days after release

| Structure (SMILES) | pest or weed control at 200 µg/mL [1, 6] [%] | pest or weed control at 200 ppm (Aphis gossypii; [7]) [%] | pest or weed control at 100 ppm (Laodelphax striatellus; [8]) [%] | pest or weed control at 200 µg/mL [1] [%] | pest or weed control at 200 ppm (Aphis gossypii) [%] | pest or weed control at 100 ppm (Laodelphax striatellus) [%] | further results |
| --- | --- | --- | --- | --- | --- | --- | --- |
| COC1C[C@]2(C[C@@]34CN5C(=O)C[C@H](C)[C@]5(C[C@@H]3C2(C)C)C(=O)N4C)C(=O)N1C (some centres unmarked) [Compound 8] | 100 | ≥ 80 | 100 |  |  |  | insecticidal activity (death rate) [2]: not less than 80% |
| C[C@H]1CC(=O)N2C[C@]34C[C@]5(C=CN(C)C5=O)C(C)(C)[C@@H]3C[C@]12C(=O)N4C [Compound 3] |  |  |  | 80 | ≥ 80 | 100 |  |
| C[C@H]1CC(=O)N2C[C@]34C[C@]5(C[C@@H](O)N(C)C5=O)C(C)(C)[C@H]3C[C@]12C(=O)N4C [Compound 1] |  |  |  | 80 | ≥ 80 | 100 |  |
| C[C@H]1CCN2C[C@]34C[C@]5(CC(=O)N(C)C5=O)C(C)(C)[C@@H]3C[C@]12C(=O)N4C [Compound B, asperparaline A] |  |  |  |  |  |  | pest or weed control at 20 µg/mL ([1]; 20 ppm acetone solution (30 μl), dry film, larva ticks, 25 C): 100% |
| C[C@H]1CC(=O)N2C[C@]34C[C@]5(CCN(C)C5=O)C(C)(C)[C@@H]3C[C@]12C(=O)N4C [Compound 4] |  |  |  | 100 | ≥ 80 | 100 |  |
| C[C@H]1CC(=O)N2C[C@]34C[C@]5(CC(=O)N(C)C5=O)C(C)(C)[C@@H]3C[C@]12C(=O)N4C [Compound A, 16-keto aspergillimide] |  |  |  |  |  |  | pest or weed control at 20 µg/mL [1]: 100%; Death rate after three days (Ctenocephalides felis): 73%; LD50 at 15 days [3]: ≥ 2000 mg/kg; Cumulative number of dead rats 15 days after administration (number of death/total number of rats tested) [4]: 0/3; Death rate after three days ([5]; dose 2 μg/2 cm^2 on mouse body surface): 60%; Death rate after three days ([5]; dose 6 μg/2 cm^2 on mouse body surface): 93%; Death rate after three days ([5]; dose 10 μg/2 cm^2 on mouse body surface): 100% |
| C[C@H]1CC(=O)N2C[C@]34C[C@@]5(C(=O)N(C)C(=O)C5Cc5ccccc5)C(C)(C)[C@@H]3C[C@]12C(=O)N4C (some centres unmarked) [Compound 10] |  | ≥ 80 |  |  |  |  |  |
| C[C@H]1CC(=O)N2C[C@]34C[C@@]5(C(=O)N(C)C6OC65)C(C)(C)[C@@H]3C[C@]12C(=O)N4C (some centres unmarked) [Compound 6] |  |  |  | 100 | ≥ 80 | 100 |  |
| C[C@H]1CC(=O)N2C[C@@]34C[C@@]5(C(=O)N(C)C=C5C5C[C@]6(C[C@]78CN9C(=O)C[C@H](C)[C@@]9(C[C@H]7C6(C)C)C(=O)N8C)C(=O)N5C)C(C)(C)[C@@H]3C[C@]12C(=O)N4C (some centres unmarked) [Compound 5] |  |  |  |  | ≥ 80 |  |  |
| C[C@H]1CC(=O)N2C[C@]34C[C@@]5(C(=O)N(C)C(=O)C5O)C(C)(C)[C@@H]3C[C@]12C(=O)N4C (some centres unmarked) [Compound 7] | 100 | ≥ 80 | 100 |  |  |  |  |
| CC(=O)O[C@@H]1C[C@]2(C[C@@]34CN5C(=O)C[C@H](C)[C@]5(C[C@@H]3C2(C)C)C(=O)N4C)C(=O)N1C [Compound 2] | 100 | ≥ 80 | 100 |  |  |  |  |
| C[C@H]1CC(=O)N2C[C@]34C[C@]5(CC(OCc6ccccc6)N(C)C5=O)C(C)(C)[C@@H]3C[C@]12C(=O)N4C (some centres unmarked) [Compound 9] | 100 | ≥ 80 | 100 |  |  |  |  |
